We go through three compounds from article PMC12301034, “Design and Synthesis of Boronic Chalcones with Dual Anticancer and Anti-Inflammatory Activity” (Molecules, 2025).

For one series, the system named is HCT116 p53^+/+ cells. As to the kind of experiment: SRB cytotoxicity assay on HCT116 p53+/+ cells. In kind it is cell-based, human. The conditions noted are these: 48 h of treatment, read-out: HCT p53^+/+ IC50. An excerpt: (§1) The SCC-25 (ATCC® CRL-1628™), Detroit-562 (ATCC® CCL-138™), and THP-1 (ATCC® TIB-202™) cells were purchased from Rio de Janeiro Cell Bank (Duque de Caxias, Brazil), and NOK-si was kindly provided by Prof. Carlos Rossa from the School of Dentistry—UNESP. All the cells were cultivated according to standard conditions. Human colorectal adenocarcinoma HCT116 cell lines (ATCC® CCL-247™) expressing p53 and its p53-null isogenic derivative (HCT116 p53^−/−) were provided by B. Vogelstein (The Johns Hopkins Kimmel Cancer Center, Baltimore, MD, USA).
(§2) HCT p53^+/+ and HCT p53^−/− cell lines were seeded in 96-well plates, with a concentration of 5000 cells/well, and allowed to adhere overnight. Afterwards, they were treated with serial dilutions of the compounds for an additional 48 h (compounds were prepared at 30 mM, in DMSO, and tested with a starting concentration of 50μM and 15 μM). Cells passed then through a series of essential steps (fixation with 10% trichloroacetic acid, for 1 h at 4 °C; staining with 0.4% sulforhodamine B (SRB); wash with 1% acetic acid; and solubilization with 10 mM Tris-Base); subsequently, absorbance was measured at 510 nm in a microplate reader (Biotek Instruments Inc., Synergy, MX, USA). IC50 values were determined using GraphPad Prism software, Version 7.0 (La Jolla, CA, USA).
Take “(E)-(3-(3-(2-bromo-4-hydroxyphenyl)-3-oxoprop-1-en-1-yl)phenyl)boronic acid [Compound 7]”: the IC50 was 3.63 ± 0.4 µM.

As for “(E)-(3-(3-(2-bromo-4-methoxyphenyl)-3-oxoprop-1-en-1-yl)phenyl)boronic acid [Compound 8]”, the IC50 was 2.06 ± 0.45 µM.

Staying with this series, now noted: Homo sapiens, HCT-116, 48 h of treatment.
`COc1cccc(C(=O)/C=C/c2ccccc2)c1` [Compound 1]: the IC50 was 6.83 ± 1.15 µM.

The subject of a further series is SCC-25 cells. As to the kind of experiment: MTT cytotoxicity assay on SCC-25 cells. It counts as cell-based, human. The conditions noted are these: Homo sapiens, SCC-25; MTT, 24 h incubation, mean SEM of three experiments.
Text: as §1
(§3) Cells (NOK-si, SCC-25, and Detroit-562) were grown in a DMEM medium (Dulbecco’s Modified Eagle Medium), supplemented according to the needs of each lineage, as recommended by its cell banks, with 2 mM L-glutamine, 10% or 20% fetal bovine serum (FBS), 1% antibiotic–antimycotic solution (5 mg/mL penicillin, 5 mg/mL streptomycin, and 10 mg/mL neomycin), 4.5 g/L of glucose, and 3.7 g/L of sodium bicarbonate (NaHCO3). All cell lines were cultured in flasks at 37 °C in 5% carbon dioxide (CO2) and 95% of relative humidity. The assays were conducted between the third- and the seventh-cell passage, with sub-cultures every 3–4 days to maintain exponential growth. The cell viability was checked using the trypan blue dye exclusion assay for all experiments, where over 95% of the cells were viable at the beginning of the tests. NOK-si, SCC-25, and Detroit-562 were initially thawed and cultured in 25 cm^2 cell culture flasks. Cell growth was monitored using a microscope, and the culture medium was changed periodically. Upon reaching confluency, cell dissociation was achieved by adding 5 mL of trypsin (Sigma-Aldrich, St Louis, MO, USA) and incubating the bottles in a CO2 incubator for 10 min. Subsequently, the cells were transferred to 15 mL Falcon tubes and centrifuged at 2000 rpm for 10 min. Cell counting was performed using a Countess II FL automated cell counter (ThermoFischer, Waltham, MA, USA). The cells were seeded at a density of 30,000 cells per well in 96-well plates. The plates were then incubated at 37 °C in 5% CO2 for 24 h. Following this, test compounds were incubated for another 24 h at 10 different concentrations: 50, 25, 12.5, 6.25, 3.12, 1.56, 0.78, 0.39, 0.19, and 0.097 µg/mL. After the specified time, MTT reagent (3 mg/mL) (Sigma-Aldrich, St Louis, MO, USA) dissolved in phenol-free RPMI 1640 was added and incubated for 4 h. The formed MTT crystals were solubilized using 2-propanol P.A. (Sigma-Aldrich, St Louis, MO, USA) with agitation. Absorbance was read at 562 nm using an EZ Read 400 microplate reader (Biochrom, Cambridge, UK) and ADAP 2.0 Biochrom software (version 2.0). IC50 values and graphs were calculated using Excel and Prism software (version 10.4.1). The MTT assay results were evaluated for normality using the Shapiro–Wilk test, followed by one-way ANOVA with Tukey’s post hoc test at a significance level of 5%.
(In general: Tetrazolium dyes change colour on reduction, which living cells bring about.)
In turn, `COc1cccc(C(=O)/C=C/c2ccccc2)c1` [Compound 1] gave an IC50 of 24.9 ± 1.09 µM.

Still in this series, the particulars now being: MTT, 24 h incubation, mean SEM of three experiments.
For the compound “(E)-(3-(3-(2-bromo-4-hydroxyphenyl)-3-oxoprop-1-en-1-yl)phenyl)boronic acid [Compound 7]”, the IC50 came out at 41.1 ± 4.62 µM.

In turn, “(E)-(3-(3-(2-bromo-4-methoxyphenyl)-3-oxoprop-1-en-1-yl)phenyl)boronic acid [Compound 8]” returned an IC50 of 33.4 ± 1.25 µM.

Still in this series, the particulars now being: selectivity index.
In the case of `COc1cccc(C(=O)/C=C/c2ccccc2)c1` [Compound 1], the “SI = IC50 NOK-si/IC50 SCC-25” value is recorded as 4.08.

Turning to “(E)-(3-(3-(2-bromo-4-hydroxyphenyl)-3-oxoprop-1-en-1-yl)phenyl)boronic acid [Compound 7]”, the “SI = IC50 NOK-si/IC50 SCC-25” value came out at 1.31.

Consider “(E)-(3-(3-(2-bromo-4-methoxyphenyl)-3-oxoprop-1-en-1-yl)phenyl)boronic acid [Compound 8]”, for which the “SI = IC50 NOK-si/IC50 SCC-25” value was 0.82.

The next series relates to IL-6. The series is described as follows: Anti-inflammatory assay, IL-6 in LPS-stimulated THP-1 cells (CBA). It counts as cell-based, human. The conditions noted are these: 2 and 4 µg/mL, 24 h. The procedure:
(§4) For this assay, THP-1 (BCRJ cód. 0234) cells were cultured in Roswell Park Memorial Institute (RPMI-1640, Sigma-Aldrich; Saint Louis, MO, USA) media supplemented with 2 mM L-glutamine, 1 mM sodium pyruvate, 1.50 g/L of sodium bicarbonate, and 10% fetal bovine serum. For obtaining Macrophage-like cells, 250,000 cells per well were plated in a 24-well cell culture plate. A total of 20 ng/mL of Forbol 12-miristato-13-acetato (PMA) was added to each well, and the cells were incubated for 48 h at 37 °C with 5% CO2. After the 48 h, the wells were washed with 1X PBS, and fresh RPMI-1640 media was added. The cells were then incubated for 24 h at 37 °C and 5% CO2. For the cell’s stimulations, after the 24 h, the well was washed with PBS and fresh RPMI1640 media without fetal bovine serum added. For the positive controls of the assay, 3 wells were stimulated with LPS (1 ng/µL) diluted in the same volume and media used for the drugs stimulation. Two different concentrations (2 and 4 µg/mL) were evaluated for each molecule, which were determined to be non-cytotoxic through a cell viability assay. After a 24 h period, the supernatant was removed and used in the cytokine quantification assay. A kit for inflammatory cytokines, BD® Cytometric Bead Array CBA Human Inflammatory, was employed for this assay, containing the following human cytokines: IL-8, IL-1β, IL-6, and TNF. […]
Consider `COc1cccc(C(=O)/C=C/c2ccccc2)c1` [Compound 1], for which the “reduction of IL-6 levels” value was “lower effectiveness”.

System in another series: not listed separately
As to the kind of experiment: Partition coefficient (Log P), OECD 117 HPLC method.
Conditions: not given
The chromatographic logP is a lipophilicity value derived from retention on a column. `COc1cccc(C(=O)/C=C/c2ccccc2)c1` [Compound 1]: the chromatographic logP is 3.73.

For another series, the system named is HCT116 p53^−/− cells. As to the kind of experiment: SRB cytotoxicity assay on HCT116 p53-/- cells. In kind it is cell-based, human. The conditions noted are these: 48 h of treatment, read-out: HCT p53^−/− IC50.
Text: as §1, §2
On the technique in general: Sulforhodamine B stains cellular protein and so reports cell mass.
“(E)-(3-(3-(2-bromo-4-hydroxyphenyl)-3-oxoprop-1-en-1-yl)phenyl)boronic acid [Compound 7]”: the IC50 was found to be 4.2 ± 0.35 µM.

Consider “(E)-(3-(3-(2-bromo-4-methoxyphenyl)-3-oxoprop-1-en-1-yl)phenyl)boronic acid [Compound 8]”, for which the IC50 amounted to 1.7 ± 0.72 µM.

Still in this series, the particulars now being: Homo sapiens, HCT-116, 48 h of treatment.
Take `COc1cccc(C(=O)/C=C/c2ccccc2)c1` [Compound 1]: the IC50 is 7.56 ± 0.4 µM.

Another series concerns TNF. As to the kind of experiment: Anti-inflammatory assay, TNF in LPS-stimulated THP-1 cells (CBA). It counts as cell-based, human. The conditions noted are these: 2 and 4 µg/mL, 24 h. The protocol:
For this assay, THP-1 (BCRJ cód. 0234) cells were cultured in Roswell Park Memorial Institute (RPMI-1640, Sigma-Aldrich; Saint Louis, MO, USA) media supplemented with 2 mM L-glutamine, 1 mM sodium pyruvate, 1.50 g/L of sodium bicarbonate, and 10% fetal bovine serum. For obtaining Macrophage-like cells, 250,000 cells per well were plated in a 24-well cell culture plate. A total of 20 ng/mL of Forbol 12-miristato-13-acetato (PMA) was added to each well, and the cells were incubated for 48 h at 37 °C with 5% CO2. After the 48 h, the wells were washed with 1X PBS, and fresh RPMI-1640 media was added. The cells were then incubated for 24 h at 37 °C and 5% CO2. For the cell’s stimulations, after the 24 h, the well was washed with PBS and fresh RPMI1640 media without fetal bovine serum added. For the positive controls of the assay, 3 wells were stimulated with LPS (1 ng/µL) diluted in the same volume and media used for the drugs stimulation. Two different concentrations (2 and 4 µg/mL) were evaluated for each molecule, which were determined to be non-cytotoxic through a cell viability assay. After a 24 h period, the supernatant was removed and used in the cytokine quantification assay. A kit for inflammatory cytokines, BD® Cytometric Bead Array CBA Human Inflammatory, was employed for this assay, containing the following human cytokines: IL-8, IL-1β, IL-6, and TNF. Standard cytokines were prepared in 9 different concentrations: 1:256, 1:128, 1:64, 1:32, 1:16, 1:8, 1:4, 1:2, and 1:1 (“top standard”). Analysis was performed using a Flow Cytometer FACS Aria Fusion BD (Bioscence, Houston, TX, USA). Data analysis was conducted using Prism software (version 10.4.1).
As for `COc1cccc(C(=O)/C=C/c2ccccc2)c1` [Compound 1], the “reduction of TNF levels” value was “lower effectiveness”.

The next series deals with IL-1β. As to the kind of experiment: Anti-inflammatory assay, IL-1β in LPS-stimulated THP-1 cells (CBA). In kind it is cell-based, human. The conditions noted are these: 2 and 4 µg/mL, 24 h. The procedure:
as §4
On to `COc1cccc(C(=O)/C=C/c2ccccc2)c1` [Compound 1], for which the “reduction of IL-1β levels” value is listed as “comparable efficacy in reducing cytokine levels relative to LPS-stimulated cells”.

Another series deals with NOK-si cells. As to the kind of experiment: MTT cytotoxicity assay on NOK-si normal oral keratinocytes. It counts as cell-based. The conditions noted are these: 24 h incubation.
Text: as §1, §3
Regarding “(E)-(3-(3-(2-bromo-4-hydroxyphenyl)-3-oxoprop-1-en-1-yl)phenyl)boronic acid [Compound 7]”, the “NOK-si IC50” value is listed as 54.0 ± 10.98 µM.

For the compound “(E)-(3-(3-(2-bromo-4-methoxyphenyl)-3-oxoprop-1-en-1-yl)phenyl)boronic acid [Compound 8]”, the “NOK-si IC50” value amounted to 27.4 ± 3.05 µM.

Still in this series, the particulars now being: Keratinocyte, 24 h incubation, read-out: NOK-si IC50.
On to `COc1cccc(C(=O)/C=C/c2ccccc2)c1` [Compound 1], for which the CC50 worked out at 101.5 ± 0.17 µM.
